Data published in PubChem BioAssay (NCI).
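1) Cells in 96-well plates. 2) Compound, 48 h, 5 concentrations. 3) Linear interpolation between surrounding doses. 4) Unreached endpoint = highest concentration. Abbreviation: GI50, concentration required for 50% inhibition of growth. TGI denotes the concentration required for complete inhibition of growth.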

Experiments:
Assay in all cases: NCI-60 cell line screen, 48 h
TK-10 renal = test system: TK-10 renal
SNB-75 CNS = test system: SNB-75 CNS
ACHN renal = test system: ACHN renal
A498 renal = test system: A498 renal
SF-295 CNS = test system: SF-295 CNS
OVCAR-3 ovarian = test system: OVCAR-3 ovarian
SK-OV-3 ovarian = test system: SK-OV-3 ovarian
BT-549 breast = test system: BT-549 breast
RPMI-8226 leukemia = test system: RPMI-8226 leukemia
DU-145 prostate = test system: DU-145 prostate
SK-MEL-5 melanoma = test system: SK-MEL-5 melanoma
PC-3 prostate = test system: PC-3 prostate
NCI-H226 lung = test system: NCI-H226 lung
MDA-MB-435 = test system: MDA-MB-435
MCF7 breast = test system: MCF7 breast
SF-268 CNS = test system: SF-268 CNS
SK-MEL-2 melanoma = test system: SK-MEL-2 melanoma
M14 melanoma = test system: M14 melanoma
SW-620 colon = test system: SW-620 colon
SK-MEL-28 melanoma = test system: SK-MEL-28 melanoma
T-47D breast = test system: T-47D breast
CAKI-1 renal = test system: CAKI-1 renal
EKVX NSCLC = test system: EKVX NSCLC
SR leukemia = test system: SR leukemia
RXF 393 renal = test system: RXF 393 renal
HCT-15 colon = test system: HCT-15 colon
K-562 leukemia = test system: K-562 leukemia
IGROV1 ovarian = test system: IGROV1 ovarian
SF-539 CNS = test system: SF-539 CNS
COLO 205 colon = test system: COLO 205 colon
KM12 colon = test system: KM12 colon
HL-60(TB) leukemia = test system: HL-60(TB) leukemia
MOLT-4 leukemia = test system: MOLT-4 leukemia
OVCAR-5 ovarian = test system: OVCAR-5 ovarian
NCI-H23 lung = test system: NCI-H23 lung
MDA-MB-231 breast = test system: MDA-MB-231 breast
HT29 colon = test system: HT29 colon
CCRF-CEM leukemia = test system: CCRF-CEM leukemia
HOP-92 NSCLC = test system: HOP-92 NSCLC
OVCAR-4 ovarian = test system: OVCAR-4 ovarian
SNB-19 CNS = test system: SNB-19 CNS

N=C(N)c1ccc(-c2ccc(-c3ccc(Cl)cc3)o2)o1
GI50 (TK-10 renal): 2.07 µM | TGI (TK-10 renal): 3.57 µM | GI50 (SNB-75 CNS): 1.5 µM | TGI (SNB-75 CNS): 2.86 µM | GI50 (ACHN renal): 1.89 µM | TGI (ACHN renal): 3.51 µM | GI50 (A498 renal): 2.12 µM | TGI (A498 renal): 7.59 µM | GI50 (SF-295 CNS): 1.83 µM | TGI (SF-295 CNS): 3.32 µM | GI50 (OVCAR-3 ovarian): 1.83 µM | TGI (OVCAR-3 ovarian): 3.43 µM | GI50 (SK-OV-3 ovarian): 1.79 µM | TGI (SK-OV-3 ovarian): 3.35 µM | GI50 (BT-549 breast): 5.92 µM | TGI (BT-549 breast): 29.6 µM | GI50 (RPMI-8226 leukemia): 2.12 µM | TGI (RPMI-8226 leukemia): 4.78 µM | GI50 (DU-145 prostate): 1.75 µM | TGI (DU-145 prostate): 3.27 µM | GI50 (SK-MEL-5 melanoma): 1.81 µM | TGI (SK-MEL-5 melanoma): 3.21 µM | GI50 (PC-3 prostate): 1.81 µM | TGI (PC-3 prostate): 3.38 µM | GI50 (NCI-H226 lung): 2.19 µM | TGI (NCI-H226 lung): 6.46 µM | GI50 (MDA-MB-435): 1.36 µM | TGI (MDA-MB-435): 2.69 µM

Nc1nc(Nc2ccccc2)sc1C(=O)c1ccc(Cl)cc1
TGI (MCF7 breast): > 100 µM | TGI (SF-268 CNS): > 100 µM | TGI (SK-MEL-2 melanoma): > 100 µM | TGI (M14 melanoma): > 100 µM | TGI (SW-620 colon): > 49 µM | TGI (SK-MEL-28 melanoma): > 100 µM | TGI (T-47D breast): > 100 µM | TGI (CAKI-1 renal): 27.4 µM | TGI (EKVX NSCLC): > 100 µM | TGI (TK-10 renal): > 100 µM | TGI (SR leukemia): > 100 µM | TGI (RXF 393 renal): 5.17 µM | TGI (HCT-15 colon): > 100 µM | TGI (K-562 leukemia): > 100 µM | TGI (IGROV1 ovarian): > 100 µM | TGI (SF-539 CNS): > 100 µM | TGI (COLO 205 colon): > 100 µM | TGI (SF-295 CNS): > 100 µM | TGI (KM12 colon): > 100 µM | TGI (HL-60(TB) leukemia): > 100 µM | TGI (MOLT-4 leukemia): > 100 µM | TGI (BT-549 breast): > 100 µM | TGI (OVCAR-5 ovarian): > 100 µM | TGI (NCI-H23 lung): > 100 µM | TGI (MDA-MB-231 breast): > 100 µM | TGI (HT29 colon): > 100 µM | TGI (CCRF-CEM leukemia): > 100 µM | TGI (HOP-92 NSCLC): > 100 µM | TGI (OVCAR-4 ovarian): 3.01 µM | TGI (SNB-19 CNS): > 100 µM
